The subject of data set [1] is Leishmania mexicana strain M379 promastigotes. Type of data set: cell-based. The conditions noted are these: for SI L. mexicana: RAW 264.7 CC50/parasite IC50; for IC50: promastigotes 1 × 10^6/well, SDM without FBS, 48 h at 25°C, MTT, three independent assays in triplicate, read-out: IC50 L. mexicana, with 95% confidence interval. On the procedure: L. mexicana promastigote stock cultures were maintained in USHMARU biphasic medium [blood agar slant overlayed with 3 mL of Schneider’s Drosophila medium (SDM), containing 10% fetal bovine serum (FBS)] at 25°C. Promastigotes were collected by centrifugation and washed with PBS, and culture medium was replaced every 2 days. Every 4 days, the parasites were transferred to a new tube and to a 25-cm^2 tissue culture flask containing 10 mL of monophasic medium (SDM + 10% FBS + 1% penicillin/streptomycin). If present, rosettes were disrupted by passing the culture through 10-mL syringes with 27G needles.
Parasite viability was measured colorimetrically via 3-(4,5-dimethylthiazol-2-yl)-2,5-diphenyltetrazole bromide tetrazolium salt (MTT) reduction. Promastigotes were placed in 96-well conical-bottom plates in SDM + 1% penicillin/streptomycin without FBS, at a density of 1 × 10^6/well. Untreated parasites (growth control), 1-µM amphotericin B diluted in DMSO (positive control), 0.25% DMSO (negative control), and each of the peptides at a final concentration of 0.1, 0.5, 1.0, 5.0, and 10.0 µM were included in triplicate wells. Plates were incubated at 25°C for 48 h. Subsequently, 20-µL 10% MTT was added per well. Plates were incubated for 2 h in the dark at the same temperature and centrifuged at 4,000 rpm for 10 min, and the supernatant was removed. Formazan crystals were diluted with 50-µL DMSO, and absorbances (A570–630) were read ([37], [38]). Three independent assays were performed for each peptide.

The test system of data set [2] is Candida albicans ATCC 10231. In kind it is cell-based. The conditions noted are these: ATCC 10231, 16 h. Here is the method:
(§1) The minimum inhibitory concentration (MIC) of CZS-4 over Escherichia coli American Type Culture Collection (ATCC) 25922, Staphylococcus aureus ATCC 29213, and Candida albicans ATCC 10231 was determined, as previously described ([28], [30], [31]). In brief, overnight cultures of each microorganism were subcultured in Muller-Hinton Broth (MHB) until reaching 1 × 10^6 CFU/mL for bacteria and 1 × 10^5 CFU/mL for yeast. Peptide serial dilutions in dimethylsulfoxide (DMSO), ranging from 0.4 to 209.4 µM were prepared, and 2 µL of each peptide dilution was added to 198-µL diluted bacterial or yeast culture in a 96-well sterile plate (with five replicates). Sterile MHB and microbial culture with DMSO were negative controls. Plates were incubated for 16 h at 37°C. Microorganism growth was measured at 600 nm.

Data set [3] deals with Staphylococcus aureus ATCC 29213. Type of data set: cell-based. The settings on record: ATCC 29213, 16 h. Here is the method:
as §1

Data set [4] relates to Escherichia coli ATCC 25922. Type of data set: cell-based. The settings on record: ATCC 25922, 16 h. On the procedure: as §1
A short description of data set [5]: Cytotoxicity, resazurin reduction assay. Type of data set: cell-based. The conditions noted are these: Macaca mulatta, LLC-MK2 cells (Macaca mulatta kidney cells), 100.0–0.195 µM, three independent assays in duplicate wells, read-out: IC50 (CC50) Llc-mk2, with 95% confidence interval. Here is the method:
(§2) RAW 264.7 murine macrophages and Macaca mulatta kidney cells (LLC-MK2) were cultured in 75-cm^2 flasks with 10-mL Dulbecco’s Modified Eagle’s Medium (DMEM) supplemented with 10% fetal bovine serum and 1% penicillin/streptomycin (DMEM-10) medium. Culture conditions were 37°C, 5% CO2, and 95% relative humidity. RAW 264.7 cells were rinsed with PBS, detached with a cell scraper, and passaged every 96 h. LL-MCK2 were subcultured weekly, at 1:4 ratio, via trypsinization.
(§3) The toxicity of the studied AMPs over LLC-MK2 and RAW 264 cells was determined via a resazurin (RZN) reduction assay ([42]). Briefly, 2 × 10^4 cells/well were seeded in DMEM-10 in 96-well plates. Twenty-four hours later, culture medium was removed, and 10 twofold serial dilutions (100.0–0.195 µM) of each AMP in 200-µL volume were placed in duplicate wells. The plate was placed on the incubator in the dark at 37°C and 5% CO2. Ten microliters of 3-mM RZN sodium salt in PBS per well was added, and the plate was incubated for 24 h. Finally, the fluorescence was measured (530- to 560-nm excitation and 590-nm emission wavelengths). Three independent assays were performed for each peptide.
A general note: Resazurin is reduced to fluorescent resorufin, in cell work by metabolically active cells.

Data set [6] in a line: Cytotoxicity, resazurin reduction assay. In kind it is cell-based, murine. The settings on record: mouse. Here is the method: as §2, §3
The subject of data set [7] is intracellular T. cruzi amastigotes (Tula β-gal) in LLC-MK2 cells. The settings on record: read-out: IC50 T. cruzi amastigotes, with 95% confidence interval, 96 h, CPRG read-out, three independent assays. On the procedure: Leishmania mexicana strain M379, P. falciparum reference clones NF54 (chloroquine-sensitive, isolated from a patient at an airport in the Netherlands) and TM90C2B (C2B) (chloroquine, mefloquine, and atovaquone resistant, from Thailand) and T. cruzi, β-galactosidase-expressing, Tulahuen strain parasites (C4 clone; +lacZ, henceforth abbreviated as Tula β-gal) ([33]) were employed in the study.
LLC-MK2 cells, 2 × 10^4/well, were seeded and allowed to attach overnight to 96-well plates. he medium was removed and cells were infected with 1 × 10^5 parasites in DMEM-2 for 24 h. Cell monolayers were washed four times with PBS, and serial dilutions of AMPs (100.0- to 0.195-µM range) in DMEM-2 without phenol red were added to duplicate wells. Wells containing infected cells not exposed to peptides served as parasite growth reference. The infection was allowed to proceed for 96 h. Subsequently, lysis solution was added to each well to a final concentration of 100-µM CPRG and 0.1% Triton and incubated for 2 h. Absorbance was measured at 590 nm ([41]). Three independent assays were performed for each peptide.
Half-maximal inhibitory concentration (IC50) and half-maximal cytotoxic concentration (CC50) with 95% confidence intervals in GraphPad Prism software (v.9.2.0., non-linear regression with curve fitting [model: log (inhibitor) vs response (three parameters)]. The selectivity index (SI) was determined by dividing the CC50 value of RAW 264.7 cells by the IC50 of the parasites.

The next data set relates to red blood cell. In kind it is cell-based. Here is the method: Hemolytic activity was determined using 200 µL of 4% red blood cell solution incubated with 200 µL of serial dilutions peptide (0.4–209.4 µM) in phosphate-buffered saline (PBS) 1× (five replicates). Negative controls contained PBS instead of peptide; positive controls contained 2% vol/vol Triton X-100 to yield complete hemolysis. Assays were incubated at 37°C for 2 h, and samples were centrifuged at […] for 5 min. Two-hundred microliters of supernatant was transferred to a 96-well plate and absorbance was measured at 550 nm.

The next data set has as its system P. falciparum NF54. In kind it is cell-based, Plasmodium falciparum. The conditions noted are these: NF54, 72 h. Here is the method: (§4) P. falciparum was cultured in human O + erythrocytes in Roswell Park Memorial Institute medium 1640, supplemented with 25-mM HEPES buffer, 10-mM glucose, 2-mM glutamine, and O + human plasma. Parasites were cultured under low-oxygen atmosphere (5% O2, 5% CO2, and 90% N2) ([34]) and maintained in fresh human erythrocytes suspended at 4% hematocrit in complete medium at 37°C. Stock cultures were subpassaged every 3–4 days by transfer of infected red cells to a flask containing complete medium and uninfected erythrocytes.
(§5) In vitro sensitivity to peptides was tested using a previously described SYBR green I fluorescence-based method ([39], [40]). Assays were set up in 96-well plates with twofold peptide dilutions in 150-μL total volume and 1.5% (vol/vol) final red blood cell concentration. Stock solutions of each peptide were prepared in DMSO. Experiments were started at an initial parasitemia of 0.5% (80% rings) synchronous parasite-infected red blood cells. Plates were incubated for 72 h at 37°C in an atmosphere of 5% CO2, 5% O2, and 90% N2. The SYBR green I dye-lysis mixture (l:100) was added to the parasites in black plates that were incubated at room temperature for an hour in the dark. The plates were then read using a fluorescence plate reader at excitation and emission wavelengths of 480 and 535 nm, respectively. Experiments were performed in duplicate wells. Three independent assays were performed for each peptide.

Data set [8] relates to P. falciparum TM90C2B (C2B). In kind it is cell-based, Plasmodium falciparum. The conditions noted are these: TM90C2B (C2B, 72 h). Here is the method:
as §4, §5

In data set [9] the test system is T. cruzi trypomastigotes (Tulahuen, Tula β-gal). In kind it is cell-based, Trypanosoma cruzi. The settings on record: trypomastigotes (Tulahuen, Tula β-gal, 4 h). Here is the method: T. cruzi trypomastigote culture was performed as reported previously ([35], [36]). LLC-MK2 cell monolayers were infected with 5 × 10^5 trypomastigotes in 10-mL DMEM supplemented with 2% FBS and 1% penicillin/streptomycin (DMEM-2), for 48 h at 37°C, 5% CO2 and 98% relative humidity. Parasites were subsequently removed by rinsing with PBS, and 10-mL fresh DMEM-2 was added. Five days post-infection, trypomastigotes were harvested from the culture for the trypanocidal activity assays.
Wells containing parasites not exposed to peptides and treated with 0.1% Triton served as 100% lysis reference. Plates were incubated in the dark at 37°C and 5% CO2 for 4 h, and absorbance was read at 590 nm. Experiments were performed in duplicate wells. Three independent assays were performed for each peptide.

Where [10] appears, read: RAW 264.7 macrophages, resazurin reduction, 24 h, 100.0–0.195 µM, three independent assays in duplicate wells, read-out: IC50 (CC50) Raw 264.7, with 95% confidence interval.

Where two headings read alike, the source gives them in different places. No end group written: not given here.

In general, IC50 refers to the concentration that gives 50% inhibition. For orientation: MIC means the lowest concentration that inhibits growth of the organism. High values mean a need for much substance, low ones inhibition by little substance. What is called CC50 is the concentration giving 50% cytotoxicity. Consider GFLDVIKHVGKAALSVVSHLINE-NH2 [CZS-4], for which the “SI L. mexicana” value in data set [1] turned out to be 532.89. Also, the IC50 came out at 90 nM in [1]; 30.7 µM in data set [7]; 13.9 µM in the data set with P. falciparum NF54; 4.87 µM in data set [8]; 1550 nM in data set [9]. For the same substance, the MIC in [2] is 52.36 µM; in [3], 26.18 µM; in [4], 13.09 µM. In addition, the CC50 at 24 h in [5] turned out to be 70.7 µM; in data set [6] (setting [10]), 48 µM. Also, the Hemolysis in the data set on red blood cell (128 µM) was 13%; with red blood cell (2 h), “less than 9.1%”. Also, the “Hemolysis (%)” value with red blood cell (2 h, 13.09 µM) was found to be 1.2%; with red blood cell (2 h, 26.18 µM) it was 9.1%; with red blood cell (2 h, 104.73 µM), 28.5%; in the data set on red blood cell (2 h, 209.46 µM) it was 36.3%.
“ASWKVFLKNIGKAAGKAVLNSVTDMVNQ-NH2 [DRS-SP2]”: in data set [1], the “SI L. mexicana” value is 5.15. For the same substance, the IC50 in [1] came out at 610 nM; in the data set with P. falciparum NF54 it was 12.1 µM; in [8], 15.3 µM. This substance also had a CC50 at 24 h in [6] of 3.14 µM.
Take GFLDIVKGVGKVALGAVSKLF-NH2 [CZS-1]: the “SI L. mexicana” value in data set [1] stood at 4.41. The concentration for half-maximal inhibition (IC50) in data set [1] was 540 nM; in data set [7], 16.7 µM; in the data set with P. falciparum NF54 it was 31.2 µM; in data set [8], 16.8 µM; in data set [9], 2870 nM. The CC50 at 24 h in [5] amounted to 3.17 µM; in data set [6] (setting [10]), 2.38 µM.
With GFLDTLKNIGKTVGRIALNVLT-NH2 [PTS-1], the “SI L. mexicana” value in data set [1] was found to be 25.20. In addition, the IC50 in [1] was determined as 100 nM; in data set [7] it was 30.2 µM; with P. falciparum NF54, 52.6 µM; in data set [8], 24.9 µM; in data set [9] it was 1420 nM. Besides, the results for the CC50 at 24 h in data set [5] and in [6] (setting [10]) were 80.1 µM and 2.52 µM, respectively.
In the case of GFLDVLKGVGKAALGAVTHLINQ-NH2 [CZS-16], the figures for the CC50 at 24 h in data set [5] and in data set [6] (setting [10]) were 5.59 µM and 4.4 µM, respectively. For the same substance, the IC50 in [7] amounted to 38.3 µM; in the data set with P. falciparum NF54, 36.8 µM; in [8] it was 34.4 µM; in data set [9] it was 18700 nM.

The values are drawn from article PMC11302733, “Bioactivity of synthetic peptides from Ecuadorian frog skin secretions against Leishmania mexicana, Plasmodium falciparum, and Trypanosoma cruzi” (Microbiology Spectrum, 2024).
